5 compounds from patent US11746116B2, “Antibiotic resistance breakers” (KING'S COLLEGE LONDON, priority 2017, dated 2023) can be followed below.

The test system of test [1] is EC12923. Kind of test: MIC, microdilution broth method. Particulars: for MIC, EC12923: ESKAPE panel, Gram-negative, in µg/mL. The class given is cell-based.
Test [2] deals with MSSA9144. Kind of test: MIC, microdilution broth method. The class given is cell-based, Staphylococcus aureus. Conditions: for MIC, MSSA9144: ESKAPE panel, Gram-positive. On the technique in general: In broth dilution the organism is exposed to a series of concentrations in liquid medium.
Test [3] concerns VRE12204. Briefly: MIC, microdilution broth method. The class given is cell-based, Enterococcus faecium. Particulars: ESKAPE panel, Gram-positive; in µg/mL.
Test [4] relates to PA13437. Briefly: MIC, microdilution broth method. The class given is cell-based. Particulars: for MIC, PA13437: ESKAPE panel, Gram-negative.
In test [5] the test system is VRE12201. Kind of test: MIC, microdilution broth method. The class given is cell-based, Enterococcus faecalis. Particulars: for MIC, VRE12201: ESKAPE panel, Gram-positive.
Test [6] concerns VSE775. Briefly: MIC, microdilution broth method. The class given is cell-based, Enterococcus faecalis. Conditions: for MIC, VSE775: ESKAPE panel, Gram-positive. Details: MIC, VSE775: unit not given beside the values.
Test [7] has as its system M6. Kind of test: MIC, microdilution broth method. Conditions: for MIC, M6: ESKAPE panel, Gram-negative. The class given is cell-based.
The test system of test [8] is Ab17978. Briefly: MIC, microdilution broth method. Particulars: for MIC, Ab17978: ESKAPE panel, Gram-negative. The class given is cell-based.
For test [9], the system named is PA01. Kind of test: MIC, microdilution broth method. The class given is cell-based, Pseudomonas aeruginosa. Particulars: for MIC, PA01: ESKAPE panel, Gram-negative.
The subject of test [10] is EMRSA15. Briefly: MIC, microdilution broth method. The class given is cell-based, Staphylococcus aureus. Particulars: for MIC, EMRSA15: in µg/mL.
The subject of test [11] is EMRSA16. Briefly: MIC, microdilution broth method. The class given is cell-based, Staphylococcus aureus. Conditions: for MIC, EMRSA16: in µg/mL.
Test [12] deals with Staphylococcus aureus ATCC29213. Kind of test: Murine thigh infection model, thigh bacterial burden. The class given is in vivo. Particulars: individual thigh samples, ICR mice.
The subject of test [13] is KP13368. Kind of test: MIC, microdilution broth method. The class given is cell-based. Conditions: for MIC, KP13368: ESKAPE panel, Gram-negative.
Test [14] deals with AYE. Briefly: MIC, microdilution broth method. Particulars: for MIC, AYE: ESKAPE panel, Gram-negative, in µg/mL. The class given is cell-based, Acinetobacter baumannii.
Test [15] has as its system SH1. Briefly: MIC, extended Gram-positive panel. The class given is cell-based, S. haemolyticus. Particulars: S. haemolyticus SH1.
Test [16] relates to SA1. Briefly: MIC, extended Gram-positive panel. The class given is cell-based, S. aureus. Particulars: S. aureus SA1; gyrA, 84:S => L; grlA, 80:S => F.
The test system of test [17] is SA9. The class given is cell-based, S. aureus. Particulars: S. aureus SA9; gyrA, 84:S => L; grlA, 80:S => F.
Test [18] has as its system SA8. Briefly: MIC, extended Gram-positive panel. Conditions: S. aureus SA8; gyrA, 84:S => L; grlA, 80:S => F. The class given is cell-based, S. aureus.
Test [19] has as its system SA6. Kind of test: MIC, extended Gram-positive panel. The class given is cell-based, S. aureus. Conditions: S. aureus SA6; gyrA, 84:S => V; grlA, 80:S => F.
The subject of test [20] is SA7. Kind of test: MIC, extended Gram-positive panel. The class given is cell-based, S. aureus. Conditions: S. aureus SA7; gyrA, 84:S => L; grlA, 80:S => F.
Test [21] concerns SA2. Briefly: MIC, extended Gram-positive panel. The class given is cell-based, S. aureus. Particulars: S. aureus SA2.
The subject of test [22] is EF2. Kind of test: MIC, extended Gram-positive panel. The class given is cell-based, E.faecium. Conditions: E.faecium EF2; in µg/mL.
The test system of test [23] is SA3. The class given is cell-based, S. aureus. Particulars: S. aureus SA3; gyrA, 84:S => L; grlA, 80:S => F.
Test [24] deals with SE1. The class given is cell-based, S. epidermidis. Particulars: S. epidermidis SE1; in µg/mL.
Test [25] has as its system SA5. The class given is cell-based, S. aureus. Conditions: S. aureus SA5; gyrA, 84:S => L; grlA, 80:S => F.
For test [26], the system named is SA4. Kind of test: MIC, extended Gram-positive panel. Particulars: S. aureus SA4; gyrA, 84:S => L; grlA, 80:S => F. The class given is cell-based, S. aureus.
Test [27] has as its system EF1. Kind of test: MIC, extended Gram-positive panel. The class given is cell-based, E.faecalis. Conditions: E.faecalis EF1.

Each structure is given as a SMILES string. Values after ≈ are worked out from the molar mass of the structure shown. Values joined by “and” are separate entries in the source; they are usually repeats but may differ in a detail not shown here. Identical values can stand only once. Like-named read-outs stand apart in the source and are kept apart here.

For `C[C@H]1COc2c(N3CCC(Nc4ncccn4)C3)c(F)cc3c(=O)c(C(=O)O)cn1c23` (stereo partly drawn) [KSN-82-L7, (3S)-9-fluoro-3-methyl-7-oxo-10-(3-(pyrimidin-2-ylamino)pyrrolidin-1-yl)-2,3-dihydro-7H-[1,4]oxazino[2,3,4-ij]quinoline-6-carboxylic acid], the “MIC, EC12923” value in test [1] is recorded as 1. For the same compound, the “MIC, MSSA9144” value in test [2] (in µg/mL) worked out at 0.06. In addition, the “MIC, VRE12204” value in test [3] was found to be 4. Further, the MIC, PA13437 in test [4] was > 32 µg/mL. Also, the “MIC, VRE12201” value in [5] (in µg/mL) stood at 0.5. For the same compound, the “MIC, VSE775” value in [6] amounted to 0.5. The “MIC, M6” value in [7] (in µg/mL) was 4-8. For the same compound, the “MIC, Ab17978” value in test [8] (in µg/mL) was 0.5. Moreover, the “MIC, PA01” value in [9] (in µg/mL) is 8-32. In test [10] (ESKAPE panel, Gram-positive), the “MIC, EMRSA15” value is recorded as 4. In test [11] (ESKAPE panel, Gram-positive), the “MIC, EMRSA16” value is listed as 4. Further, the Bacterial burden data is 6.42E+02 CFU/g and 1.94E+03 CFU/g and 1.60E+03 CFU/g and 3.05E+03 CFU/g and 1.51E+03 CFU/g and 1.18E+04 CFU/g and 2.48E+03 CFU/g and 3.92E+03 CFU/g and 5.78E+02 CFU/g and 1.80E+03 CFU/g in test [12] (20 mg/kg); 5.94E+02 CFU/g and 2.63E+03 CFU/g and 2.00E+03 CFU/g and 1.44E+03 CFU/g and 9.34E+02 CFU/g and 1.14E+03 CFU/g and 2.58E+03 CFU/g and 1.98E+03 CFU/g and 5.78E+02 CFU/g and 1.70E+03 CFU/g in [12] (50 mg/kg). In test [13], the MIC, KP13368 is 16 µg/mL (≈ 37.6 µM). Also, in [14], the “MIC, AYE” value is given as 16-32.
For `C[C@H]1COc2c(N3CC[C@@H](Nc4ncc(F)cn4)C3)c(F)cc3c(=O)c(C(=O)O)cn1c23` [KSN-L34, (S)-9-fluoro-10-((R)-3-((5-fluoropyrimidin-2-yl)amino)pyrrolidin-1-yl)-3-methyl-7-oxo-2,3-dihydro-7H-[1,4]oxazino[2,3,4-ij]quinoline-6-carboxylic acid], the “MIC, EC12923” value in test [1] was 0.125. Also, the MIC in test [1] (Escherichia coli (EC12923), Gram-Negative, read-out: MIC) was 0.125 µg/mL (≈ 0.282 µM); in test [2] (Staphylococcus aureus (MSSA9144), Gram-Positive, read-out: MIC) it was ≤ 0.125 µg/mL; in test [5] (Enterococcus faecalis, Enterococcus (VRE12201), Gram-Positive, read-out: MIC), ≤ 0.125 µg/mL; in [6] (Enterococcus faecalis, Enterococcus (VRE775), Gram-Positive, read-out: MIC), ≤ 0.125 µg/mL; in test [7] (Klebsiella pneumoniae (M6), Gram-Negative, read-out: MIC) it was 2 µg/mL (≈ 4.51 µM); in [8] (Acinetobacter baumannii (AB17978), Gram-Negative, read-out: MIC) it was ≤ 0.125 µg/mL. For the same compound, the MIC in [9] (Pseudomonas aeruginosa (PA01), Gram-Negative, read-out: MIC) is 4 µg/mL (≈ 9.02 µM); in test [10] (Staphylococcus aureus, Staphylococcus aureus (EMRSA15), Gram-Positive (Table 14), read-out: MIC), 0.5 µg/mL (≈ 1.13 µM); in test [11] (Staphylococcus aureus (EMRSA16), Gram-Positive (Table 14), read-out: MIC), 1 µg/mL (≈ 2.26 µM); in test [13] (Klebsiella pneumoniae (KP13368), Gram-Negative, read-out: MIC) it was 32 µg/mL (≈ 72.2 µM); in [14] (Acinetobacter baumannii (AYE), Gram-Negative, read-out: MIC), 4 µg/mL (≈ 9.02 µM). In addition, the “MIC, MSSA9144” value in [2] (in µg/mL) was ≤0.125. In test [3], the “MIC, VRE12204” value was 1. Moreover, in test [4], the MIC, PA13437 is > 32 µg/mL. Moreover, in test [5] (in µg/mL), the “MIC, VRE12201” value is reported as ≤0.125. In test [6], the “MIC, VSE775” value is listed as ≤0.125. The “MIC, M6” value in [7] (in µg/mL) amounted to 2. The “MIC, Ab17978” value in test [8] (in µg/mL) was ≤0.125. Also, in [9] (in µg/mL), the “MIC, PA01” value is 4. In addition, the “MIC, EMRSA15” value in [10] (EMRSA15 (Table 16, role of the terminal pyrimidine ring)) stood at 0.5; in test [10] (ESKAPE panel, Gram-positive) it was 0.5. Also, the “MIC, EMRSA16” value amounted to 1 in [11] (EMRSA16 (Table 16, role of the terminal pyrimidine ring)) and 1 in test [11] (ESKAPE panel, Gram-positive). Moreover, the MIC, KP13368 in test [13] came to 32 µg/mL (≈ 72.2 µM). In addition, the “MIC, AYE” value in [14] came out at 4.
As for `C[C@H]1COc2c(N3CC[C@@H](N(C)C4CC4)C3)c(F)cc3c(=O)c(C(=O)O)cn1c23` [KSN-L36, (S)-10-((R)-3-(cyclopropyl(methyl)amino)pyrrolidin-1-yl)-9-fluoro-3-methyl-7-oxo-2,3-dihydro-7H-[1,4]oxazino[2,3,4-ij]quinoline-6-carboxylic acid], in [1], the “MIC, EC12923” value is 0.5-1. Moreover, the “MIC, MSSA9144” value in test [2] (in µg/mL) is listed as 0.25-0.5. In test [3], the “MIC, VRE12204” value is 8. For the same compound, the MIC, PA13437 in test [4] is > 64 µg/mL. Besides, the “MIC, VRE12201” value in test [5] (in µg/mL) was 2. Besides, the “MIC, VSE775” value in test [6] is 4. In addition, the “MIC, M6” value in test [7] (in µg/mL) is 2-4. Further, the “MIC, Ab17978” value in test [8] (in µg/mL) is given as 0.5-1. The “MIC, PA01” value in test [9] (in µg/mL) is reported as 16. The “MIC, EMRSA15” value in [10] (ESKAPE panel, Gram-positive) stood at 32. Besides, the “MIC, EMRSA16” value in test [11] (ESKAPE panel, Gram-positive) is 32. Also, the MIC, KP13368 in test [13] is 32 µg/mL (≈ 79.7 µM). Moreover, the “MIC, AYE” value in test [14] was determined as 64.
In the case of `O=C(O)c1cn(C2CC2)c2cc(N3CCN(Cc4cccc5ccccc45)CC3)c(F)cc2c1=O` [ML-77-005], the MIC was 4 µg/mL (≈ 8.48 µM) in [15]; 2 µg/mL (≈ 4.24 µM) in test [16]; 0.25-8 in [2] (MSSA9144, in µg/mL); 2 µg/mL (≈ 4.24 µM) in test [17]; 2 µg/mL (≈ 4.24 µM) in test [18]; 2 µg/mL (≈ 4.24 µM) in test [19]. For the same compound, the MIC stood at 2 µg/mL (≈ 4.24 µM) in test [20]; 32 µg/mL (≈ 67.9 µM) in test [4] (PA13437, +PMBN); 0.5 µg/mL (≈ 1.06 µM) in test [21]; 0.5 in [5] (VRE12201, in µg/mL); 2 in test [22]; 2 µg/mL (≈ 4.24 µM) in [23]. Moreover, the MIC was 0.25-2 in test [24]; 2 µg/mL (≈ 4.24 µM) in test [25]; 0.5 in [7] (M6, +PMBN, in µg/mL); 32-64 in [7] (M6, Normal (no PMBN), in µg/mL); 2 µg/mL (≈ 4.24 µM) in test [26]; “−.12-0.25” in [8] (Ab17978, +PMBN). Moreover, the MIC in test [8] (Ab17978, Normal (no PMBN), in µg/mL) was 4; in test [27], 2 µg/mL (≈ 4.24 µM); in [9] (PA01, +PMBN, in µg/mL) it was <0.12-0.25.
For `CCn1cc(C(=O)O)c(=O)c2cc(F)c(N3CCNCC3)cc21` [NOR], in [26], the MIC is 64 µg/mL (≈ 200 µM).
